Results published in PubChem BioAssay (NCI).
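These data come from cells grown in 96-well plates and exposed to compound for 48 hours at five concentrations. At the GI50, growth is halved. TGI: concentration producing complete growth inhibition.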

Columns and labels:
Assay in all cases: DTP human tumour cell line panel, 48 h
786-0 renal = test system: 786-0 renal
A498 renal = test system: A498 renal
A549 NSCLC = test system: A549 NSCLC
ACHN renal = test system: ACHN renal
BT-549 breast = test system: BT-549 breast
CAKI-1 renal = test system: CAKI-1 renal
CCRF-CEM leukemia = test system: CCRF-CEM leukemia
COLO 205 colon = test system: COLO 205 colon
DU-145 prostate = test system: DU-145 prostate
HCC-2998 colon = test system: HCC-2998 colon
HCT-116 colon = test system: HCT-116 colon
HCT-15 colon = test system: HCT-15 colon
HL-60(TB) leukemia = test system: HL-60(TB) leukemia
HOP-62 NSCLC = test system: HOP-62 NSCLC
HOP-92 NSCLC = test system: HOP-92 NSCLC
HS 578T breast = test system: HS 578T breast
HT29 colon = test system: HT29 colon
IGROV1 ovarian = test system: IGROV1 ovarian
K-562 leukemia = test system: K-562 leukemia
KM12 colon = test system: KM12 colon
LOX IMVI melanoma = test system: LOX IMVI melanoma
M14 melanoma = test system: M14 melanoma
MALME-3M melanoma = test system: MALME-3M melanoma
MCF7 breast = test system: MCF7 breast
MDA-MB-231 breast = test system: MDA-MB-231 breast
MDA-MB-435 = test system: MDA-MB-435
MOLT-4 leukemia = test system: MOLT-4 leukemia
NCI-H226 lung = test system: NCI-H226 lung
NCI-H23 lung = test system: NCI-H23 lung
NCI-H460 lung = test system: NCI-H460 lung
NCI-H522 lung = test system: NCI-H522 lung
NCI/ADR-RES ovarian = test system: NCI/ADR-RES ovarian
OVCAR-3 ovarian = test system: OVCAR-3 ovarian
OVCAR-4 ovarian = test system: OVCAR-4 ovarian
OVCAR-5 ovarian = test system: OVCAR-5 ovarian
OVCAR-8 ovarian = test system: OVCAR-8 ovarian
PC-3 prostate = test system: PC-3 prostate
RPMI-8226 leukemia = test system: RPMI-8226 leukemia
RXF 393 renal = test system: RXF 393 renal
SF-268 CNS = test system: SF-268 CNS
SF-295 CNS = test system: SF-295 CNS
SF-539 CNS = test system: SF-539 CNS
SK-MEL-2 melanoma = test system: SK-MEL-2 melanoma
SK-MEL-28 melanoma = test system: SK-MEL-28 melanoma
SK-MEL-5 melanoma = test system: SK-MEL-5 melanoma
SK-OV-3 ovarian = test system: SK-OV-3 ovarian
SN12C renal = test system: SN12C renal
SNB-19 CNS = test system: SNB-19 CNS
SNB-75 CNS = test system: SNB-75 CNS
SR leukemia = test system: SR leukemia
SW-620 colon = test system: SW-620 colon
T-47D breast = test system: T-47D breast
TK-10 renal = test system: TK-10 renal
U251 CNS = test system: U251 CNS
UACC-257 melanoma = test system: UACC-257 melanoma
UACC-62 melanoma = test system: UACC-62 melanoma
UO-31 renal = test system: UO-31 renal

O=C1Nc2ccc(Cl)cc2/C1=C\c1c(-c2ccc(Cl)cc2)nc2sc(C3CC3)nn12
GI50 (786-0 renal): 4.68 µM | TGI (786-0 renal): 18.8 µM | GI50 (A498 renal): 1.05 µM | TGI (A498 renal): 6.42 µM | GI50 (A549 NSCLC): 3.58 µM | TGI (A549 NSCLC): 13.9 µM | GI50 (ACHN renal): 2.77 µM | TGI (ACHN renal): 12.3 µM | GI50 (BT-549 breast): 2.52 µM | TGI (BT-549 breast): 9.27 µM | GI50 (CAKI-1 renal): 1.43 µM | TGI (CAKI-1 renal): 11.1 µM | GI50 (CCRF-CEM leukemia): 19.8 µM | TGI (CCRF-CEM leukemia): > 100 µM | GI50 (COLO 205 colon): 5.77 µM | TGI (COLO 205 colon): 23.9 µM | GI50 (DU-145 prostate): 5.73 µM | TGI (DU-145 prostate): 17.6 µM | GI50 (HCC-2998 colon): 6.94 µM | TGI (HCC-2998 colon): 22.3 µM | GI50 (HCT-116 colon): 3 µM | TGI (HCT-116 colon): 11.4 µM | GI50 (HCT-15 colon): 4.36 µM | TGI (HCT-15 colon): 17.6 µM | GI50 (HL-60(TB) leukemia): 40.8 µM | TGI (HL-60(TB) leukemia): > 100 µM | GI50 (HOP-62 NSCLC): 1.75 µM | TGI (HOP-62 NSCLC): 4.21 µM | GI50 (HOP-92 NSCLC): 2.01 µM | TGI (HOP-92 NSCLC): 5.89 µM | GI50 (HS 578T breast): 2.31 µM | TGI (HS 578T breast): 6.85 µM | GI50 (HT29 colon): 5.61 µM | TGI (HT29 colon): 17.4 µM | GI50 (IGROV1 ovarian): 4.12 µM | TGI (IGROV1 ovarian): 15.8 µM | GI50 (K-562 leukemia): 7.37 µM | TGI (K-562 leukemia): 24.7 µM | GI50 (KM12 colon): 15.8 µM | TGI (KM12 colon): > 100 µM | GI50 (LOX IMVI melanoma): 3.15 µM | TGI (LOX IMVI melanoma): 10.7 µM | GI50 (M14 melanoma): 5.77 µM | TGI (M14 melanoma): 21.8 µM | GI50 (MALME-3M melanoma): 2.9 µM | TGI (MALME-3M melanoma): 8.79 µM | GI50 (MCF7 breast): 4.1 µM | TGI (MCF7 breast): 16.6 µM | GI50 (MDA-MB-231 breast): 2.67 µM | TGI (MDA-MB-231 breast): 13 µM | GI50 (MDA-MB-435): 9.36 µM | TGI (MDA-MB-435): 28.9 µM | GI50 (MOLT-4 leukemia): 44.9 µM | TGI (MOLT-4 leukemia): > 100 µM | GI50 (NCI-H226 lung): 1.7 µM | TGI (NCI-H226 lung): 4.68 µM | GI50 (NCI-H23 lung): 4.39 µM | TGI (NCI-H23 lung): 17.6 µM | GI50 (NCI-H460 lung): 3.89 µM | TGI (NCI-H460 lung): 14.1 µM | GI50 (NCI-H522 lung): 4.5 µM | TGI (NCI-H522 lung): 26.3 µM | GI50 (NCI/ADR-RES ovarian): 2.85 µM | TGI (NCI/ADR-RES ovarian): 10.2 µM | GI50 (OVCAR-3 ovarian): 4.16 µM | TGI (OVCAR-3 ovarian): 15.2 µM | GI50 (OVCAR-4 ovarian): 1.96 µM | TGI (OVCAR-4 ovarian): 5.16 µM | GI50 (OVCAR-5 ovarian): 11.7 µM | TGI (OVCAR-5 ovarian): 42.6 µM | GI50 (OVCAR-8 ovarian): 3.12 µM | TGI (OVCAR-8 ovarian): 11.5 µM | GI50 (PC-3 prostate): 5 µM | TGI (PC-3 prostate): 19.6 µM | GI50 (RPMI-8226 leukemia): 18.1 µM | TGI (RPMI-8226 leukemia): > 100 µM | GI50 (RXF 393 renal): 1.91 µM | TGI (RXF 393 renal): 5.09 µM | GI50 (SF-268 CNS): 3.21 µM | TGI (SF-268 CNS): 12.9 µM | GI50 (SF-295 CNS): 2.23 µM | TGI (SF-295 CNS): 6.89 µM | GI50 (SF-539 CNS): 1.88 µM | TGI (SF-539 CNS): 3.78 µM | GI50 (SK-MEL-2 melanoma): 4.9 µM | TGI (SK-MEL-2 melanoma): 19.8 µM | GI50 (SK-MEL-28 melanoma): 3.49 µM | TGI (SK-MEL-28 melanoma): 13.7 µM | GI50 (SK-MEL-5 melanoma): 3.2 µM | TGI (SK-MEL-5 melanoma): 13 µM | GI50 (SK-OV-3 ovarian): 2.51 µM | TGI (SK-OV-3 ovarian): 6.64 µM | GI50 (SN12C renal): 3.54 µM | TGI (SN12C renal): 14.2 µM | GI50 (SNB-19 CNS): 3.59 µM | TGI (SNB-19 CNS): 16.7 µM | GI50 (SNB-75 CNS): 1.38 µM | TGI (SNB-75 CNS): 3.19 µM | GI50 (SR leukemia): 12.6 µM | TGI (SR leukemia): 75.8 µM | GI50 (SW-620 colon): 7.65 µM | TGI (SW-620 colon): 55 µM | GI50 (T-47D breast): 2.41 µM | TGI (T-47D breast): 22 µM | GI50 (TK-10 renal): 3.1 µM | TGI (TK-10 renal): 7.97 µM | GI50 (U251 CNS): 3.29 µM | TGI (U251 CNS): 13.1 µM | GI50 (UACC-257 melanoma): 3.36 µM | TGI (UACC-257 melanoma): 14.4 µM | GI50 (UACC-62 melanoma): 3.06 µM | TGI (UACC-62 melanoma): 14.5 µM | GI50 (UO-31 renal): 2.63 µM | TGI (UO-31 renal): 14.8 µM
